Experimental data from publication PMC10077545, “Exploration of Antiproliferative Activity and Apoptosis Induction of New Nickel(II) Complexes Encompassing Carbazole Ligands” (ACS Omega, 2023).
Like-named read-outs stand apart in the source and are kept apart here.

Columns and labels:
[1] = system: human cervical carcinoma (HeLa); assay: MTT assay, in vitro cell viability, HeLa; type: cell-based; conditions: ± standard deviation
Experimental: (§1) To study the ability of the prepared ligands and the synthesized complexes in retarding the growth of cancer cell, the MTT assay was performed with human cervical carcinoma (HeLa), human colon carcinoma (HT-29), and non-cancerous L929 (fibroblast) cell lines. As a reference, cisplatin is also examined with all the cell lines for an incubation period of 24 h and as stated in Table 1.
(§2) 2. Experimental Procedures […]
(§3) The cell lines HeLa, HT-29, and L929 were collected from ATCC and the stock cells were cultured in DMEM/ F12 enriched with 10% inactivated Fetal Bovine Serum (FBS), penicillin (100 IU/ml), streptomycin (100 µg/ml) in a humidified atmosphere of 5% carbon dioxide at 37 °C until confluent. The cells were dissociated with cell dissociating solution (0.2 % trypsin, 0.02 % EDTA, 0.05 % glucose in PBS). The viability of the cells have been checked and centrifuged. Further, 50,000 cells /well of […] was seeded in a 96 well plate and incubated for 24 hours at 37 °C, 5 % carbon dioxide incubator.
(§4) The monolayer cell culture has been trypsinized and the cell count was altered to […] using respective media comprising 10% FBS. 100 µL of the diluted cell suspension (50,000 cells/well) was added to each well of the 96 well microtiter plate. When a partial monolayer formed after 24 hours, the supernatant was swiped off and the monolayer has been washed with the medium. 100 µL of various concentrations of complexes have been added on to the partial monolayer in microtiter plates. Then, the […]
(§5) incubation, the test solutions in the wells have been discarded and 100 µL of MTT (5 mg/10 ml of MTT in PBS) was added to each well. The plates have been incubated for four hours at 37 °C in 5% carbon dioxide atmosphere. The supernatant has been removed and 100 µL of DMSO was applied to dissolve the formed formazan. The absorbance was recorded using a microplate reader at 590 nm. The % growth inhibition has been determined using the […]
(§6) Cell viability (%) = (Absorbance of each well/ Absorbance of control well) × 100 […]
(§7) Hoechst 33342 staining method
(§8) 5 × 10^5 HeLa cells have been incubated with IC50 concentration of the complex 4 for 24 hours in a 6-well culture plate and have been fixed with 4% paraformaldehyde followed by permeabilization with 0.1% Triton X-100. Cells were then stained with 50 μg /mL Hoechst 33342 for 30 min at ambient temperature. The cells undergoing apoptosis were observed and visualized by epifluorescence microscope (Carl Zeiss, Germany).

[2] = system: human colon carcinoma (HT-29); assay: MTT assay, in vitro cell viability, HT-29; type: cell-based; conditions: ± standard deviation
Experimental: as §1, §2, §3, §4, §5, §6, §7, §8

[3] = system: non-cancerous L929 (fibroblast) cell lines; assay: MTT assay, in vitro cell viability, L929; type: cell-based; conditions: ± standard deviation
Experimental: as §1, §2, §3, §4, §5, §6, §7, §8

[4] = Partition coefficient (log P), shake-flask, n-octanol-water; type: physicochemical
Text: The permeability of the drug molecules into a lipid cytomembrane is a prime initiative for designing drugs and its development. The main properties like absorption, transportation, and expulsion of the drugs take control over the chief pharmacokinetic properties. Accordingly, we resolve the permeability of all the complexes with the help of calculated log P values using a n-octanol–water system. Based on the solubility of the complexes in aqueous and organic phases, the log P values are determined.[22]−[24] […] Complexes 3 and 4 display higher permeability characters (log P value) due to the presence of halogen and electron-donating group, respectively. Additionally, the presence of the carbazole moiety in the complexes enhanced the lipophilicity.[25],[26]
2. Experimental Procedures
UV-visible time dependent spectral method has been used to examine the stability of the complexes. Complexes were dissolved in a minimum amount of 1% DMSO and then diluted with PBS buffer to 1×10−3 M concentration. The hydrolysis profiles of the complexes were monitored by their electronic spectra over 72 h.
Partition coefficients determination
The "shake-flask" technique was used to evaluate the lipophilicity of complexes 2 - 4 using octanol/water phase partitions. Double distilled water and analytical grade octanol (Sigma Aldrich) were used to produce octanol-saturated water and water-saturated octanol phases. Complexes 2−4 (1 mg/mL; ethanol/water) have been diluted to 2, 4, 6, 8, and 10 μg/mL in water and alternatively were diluted to 2, 4, 6, 8, and 10 μg/mL in octanol, respectively. Equal volumes (50/50) of the complexes in the proper concentrations […] have been shaken for 24 hours at ambient temperature. The organic and aqueous fractions have been separated and centrifuged when equilibrium was attained. Finally, UV-visible spectroscopy was used to determine the complex concentration in each phase. The concentration of the sample solution was used to calculate the partition coefficients (log P) by using the equation log P = log[(1−3)oct/(1−3)aq]. 4 […]

caspase-8 = assay: Caspase activity assay, caspase-8 in HeLa cells; type: cell-based, human; conditions: IC50 concentration, 12 and 24 h
Text: (§9) The apoptotic mode of cancer cell death was further substantiated by caspase activation by ELISA analysis. In eukaryotes, caspases(protease enzymes) play a significant role in induction, transduction, and amplification of intracellular apoptotic signals. Based on the amino acid composition, caspases are divided into three sub-families, namely, […], executioner, and mediator caspases.[37] Most importantly, the initiator and executioner caspases get involved in the apoptotic signaling cascade. Caspase-8 and -9 are the initiators of the extrinsic and intrinsic pathways of apoptosis, respectively. Both mechanisms converge in the activation of the executioner caspase-3.[38]
(§10) Reactive Oxygen Species (ROS) Assay
(§11) To quantify the intracellular ROS, 5 × 10^5 HeLa cells have been seeded on a 6-well plate comprising cover slip and incubated overnight for attachment. […]
(§12) Culture cells on cover slips in 6‐well cell culture plates at a density around 5 x 10^5 cells/mL overnight in an incubator (5% carbon dioxide, 37 °C). […] The cells were immediately examined under a fluorescent microscope (Olympus, CKX-53, Japan), and the proportion of dead cells was calculated in at least three randomly chosen microscopic fields. […]
(§13) The caspase activity assay was determined by a chromogenic assay using caspase-3 (Calbiochem, Merck), caspase-8 and 9 (Chemicon International Inc.) colorimeter activity assay kits. […]

caspase-3 = assay: Caspase activity assay, caspase-3 in HeLa cells; type: cell-based, human; conditions: IC50 concentration, 12 and 24 h
Text: as §9, §10, §11, §12, §13

HeLa cancer cells [5] = assay: ROS detection (DCFH-DA); type: cell-based, human; conditions: IC50 concentration, 24 h, control 20 %
Text: ROS, like hydrogen peroxide, superoxide anion, and hydroxyl radical, are produced on mitochondrial oxidative metabolism along with cell’s reaction toward cytokines and bacterial invasion. At low levels of ROS, it could participate in cell signaling. Whereas, at higher levels they might damage (DNA and RNA) and engage in apoptosis via mitochondrial dysfunction.[32] The quantity of ROS is detected with the help of oxidant fluorescent dye. The nonpolar dye DCFH-DA turned out to be deacetylated and transformed into DCFH (polar) by intracellular esterases. However, DCFH is not identified using a microscope. […]
as §11, §12
(§14) HeLa ells have been seeded in a 6-well plate (10^5 cells/well)) and cultured at 37 °C for 24 hours. […] Finally, apoptosis induction has been assessed using a flow cytometer (SYSMEX, Japan), and the data have been analyzed by Flow Jo software. […]

caspase-9 = assay: Caspase activity assay, caspase-9 in HeLa cells; type: cell-based, human; conditions: IC50 concentration, 12 and 24 h
Text: as §9, §10, §11, §12, §13

HeLa cancer cells [6] = assay: Mitochondrial membrane potential, JC-1 staining; type: cell-based, human; conditions: IC50 concentration, 24 h
Experimental: The mitochondrial dysfunction-mediated apoptosis was assayed via ROS generation. After the mitochondrial impairment, the mitochondrial membrane potential (MMP) is reduced and the same was examined using JC-1 fluorescence dye. The dye is used to assay the MMP to determine mitochondrial viability. Proapoptotic factors and other apoptotic inducing features were produced by mitochondria, which serves to be a significant role for apoptosis. […] In the control group (Figure 7A), JC-1 accumulates and produces a red fluorescence correlating to a high MMP.
as §10, §11, §12, §14

[7] = Homo sapiens, HeLa, 24 h incubation, read-out: IC50 HeLa 24 h
[8] = Homo sapiens, HeLa, 48 h incubation, read-out: IC50 HeLa 48 h
[9] = Homo sapiens, HT-29, 24 h incubation, read-out: IC50 HT-29 24 h
[10] = Homo sapiens, HT-29, 48 h incubation, read-out: IC50 HT-29 48 h
[11] = Mus musculus, L929, 24 h incubation, read-out: IC50 L929 24 h
[12] = Mus musculus, L929, 48 h incubation, read-out: IC50 L929 48 h
[13] = 24 h incubation, read-out: IC50 HeLa 24 h
[14] = 48 h incubation, read-out: IC50 HeLa 48 h
[15] = 24 h incubation, read-out: IC50 HT-29 24 h
[16] = 48 h incubation, read-out: IC50 HT-29 48 h
[17] = 24 h incubation, read-out: IC50 L929 24 h
[18] = 48 h incubation, read-out: IC50 L929 48 h
[19] = n-octanol-water system, shake-flask, UV-visible

Row | Compound | IC50 [1, 7] [µM] | IC50 [1, 8] [µM] | IC50 [2, 9] [µM] | IC50 [2, 10] [µM] | IC50 [3, 11] [µM] | IC50 [3, 12] [µM] | IC50 [1, 13] [µM] | IC50 [1, 14] [µM] | IC50 [2, 15] [µM] | IC50 [2, 16] [µM] | IC50 [3, 17] [µM] | IC50 [3, 18] [µM] | log P [4, 19] | log P [4] | Expression of caspase-8 (caspase-8) | Caspase-3 activity versus control cells (caspase-3) | % of fluorescence intensity, reactive oxygen species (DCFH-DA) (HeLa cancer cells [5]) [%] | Caspase-9 activity versus control cells (caspase-9) | Mitochondrial membrane potential (JC-1 fluorescence) (HeLa cancer cells [6])
1 | O=C(N/N=C1/CCCc2c1[nH]c1ccccc21)c1ccccc1 [L1] | > 100 | > 100 | > 100 | > 100 | > 100 | > 100 |  |  |  |  |  |  |  |  |  |  |  |  | 
2 | O=C(N/N=C1/CCCc2c1[nH]c1ccccc21)c1ccc(Cl)cc1 [L2] | > 100 | 86.2 ± 1.12 | > 100 | 94 ± 1.27 | > 100 | > 100 |  |  |  |  |  |  |  |  |  |  |  |  | 
3 | COc1ccc(C(=O)N/N=C2/CCCc3c2[nH]c2ccccc32)cc1 [L3] | > 100 | 73.4 ± 0.82 | > 100 | 81.7 ± 1.09 | > 100 | > 100 |  |  |  |  |  |  |  |  |  |  |  |  | 
4 | N.N.[Cl][Pt][Cl] [cisplatin, reference compound] |  |  |  |  |  |  | 28.04 ± 0.18 | 12.4 ± 1.81 | 34.3 ± 1.45 | 14.3 ± 1.57 | 146.5 ± 0.79 | 141.2 ± 0.37 |  |  |  |  |  |  | 
5 | c1ccc(C(=NN=C2CCCc3c2[nH]c2ccccc32)[O][Ni][O]C(=NN=C2CCCc3c2[nH]c2ccccc32)c2ccccc2)cc1 [complex 2, [Ni(L1)2]] |  |  |  |  |  |  | 49.3 ± 1.05 | 40.12 ± 0.09 | 68.59 ± 0.27 | 61.25 ± 0.47 | 248.1 ± 1.12 | 236.3 ± 1.45 | 0.86 ± 0.14 |  |  |  |  |  | 
6 | Clc1ccc(C(=NN=C2CCCc3c2[nH]c2ccccc32)[O][Ni][O]C(=NN=C2CCCc3c2[nH]c2ccccc32)c2ccc(Cl)cc2)cc1 [complex 3, [Ni(L2)2]] |  |  |  |  |  |  | 45.4 ± 0.72 | 32.8 ± 1.19 | 59.2 ± 0.64 | 50.8 ± 1.11 | 253.1 ± 0.61 | 247.4 ± 0.28 |  | 1.57 ± 0.12 |  |  |  |  | 
7 | COc1ccc(C(=NN=C2CCCc3c2[nH]c2ccccc32)[O][Ni][O]C(=NN=C2CCCc3c2[nH]c2ccccc32)c2ccc(OC)cc2)cc1 [complex 4, [Ni(L3)2]] |  |  |  |  |  |  | 43.39 ± 0.21 | 28.2 ± 0.32 | 57.42 ± 0.09 | 41.2 ± 1.28 | 275.8 ± 0.35 | 269.1 ± 1.1 | 1.95 ± 0.05 |  | efficiently upregulated | time-dependent increase | 80 | time-dependent increase | decrease in MMP
